Calls of active or inactive are those of the source. The rule behind the calls is not given here.
How the values were obtained:
PC-12 [1] = experiment: Cytotoxicity in rat PC-12 cells assessed as cell viability measured at 30 uM for 24 hrs by MTT assay; format: functional, cell-based
PC-12 [2] = experiment: Cytotoxicity in rat PC-12 cells assessed as cell viability measured at 10 to 30 uM for 24 hrs by MTT assay; format: functional, cell-based; settings: dose 10-30 µM
PC-12 [3] = experiment: Neuroprotective activity against 6-OHDA-induced cytotoxicity in rat PC-12 cells at 30 uM for 4 hrs followed by exposure to 6-OHDA measured after 24 hrs by MTT assay; format: functional, cell-based; settings: time 28.0 hrs
PC-12 [4] = experiment: Neuroprotective activity against 6-OHDA-induced cytotoxicity in rat PC-12 cells for 4 hrs followed by exposure to 6-OHDA measured after 24 hrs by MTT assay; format: functional, cell-based; settings: dose 0.1-30 µM, time 28.0 hrs
PC-12 [5] = experiment: Neuroprotective activity against 6-OHDA-induced cytotoxicity in rat PC-12 cells at 0.1 to 30 uM for 4 hrs followed by exposure to 6-OHDA measured after 24 hrs by MTT assay relative to control; format: functional; settings: dose 0.1-30 µM, time 28 hrs
PC-12 [6] = experiment: Cytotoxicity in rat PC-12 cells assessed as cell viability incubated at 0.1 to 30 uM for 24 hrs by MTT assay relative to control; format: functional; settings: dose 0.1-30 µM
PC-12 [7] = experiment: Neuroprotective activity against 6-OHDA-induced cytotoxicity in rat PC-12 cells at 10 to 30 uM for 4 hrs followed by exposure to 6-OHDA measured after 24 hrs by MTT assay; format: functional, cell-based; settings: dose 10-30 µM, time 28.0 hrs
PC-12 [8] = experiment: Cytotoxicity in rat PC-12 cells assessed as cell viability incubated for 24 hrs by MTT assay; format: functional, cell-based; settings: PC-12, 24 h
[9] = Neurotoxicity in rotenone induced at rat PC-12 cells assessed as cell viability at 30 uM pretreated for 4 hrs followed by rotenone addition measured after 24 hrs by MTT assay (reference value: 53.4 +/- 2.6%); format: toxicity, cell-based; settings: time 28 hrs, read-out: Activity
[10] = Neurotoxicity in rotenone induced at rat PC-12 cells assessed as cell viability pretreated with compound for 4 hrs followed by rotenone addition measured after 24 hrs by MTT assay; format: toxicity, cell-based
Brain = experiment: Antioxidant activity in Fe2+/L-ascorbic acid induced Sprague-Dawley rat brain homogenate assessed as inhibition of lipid peroxide production measured at 100 uM after 60 mins by microplate reader method relative to control; format: functional, tissue-based
PC-12 [11] = experiment: Antiinflammatory activity in 6-OHDA-induced cytotoxicity in rat PC-12 cells assessed as reduction of ROS production pretreated at 10 to 30 uM for 4 hrs followed by 6-OHDA addition treated for 6 hrs measured after 1 hr of H2-DCFDA addition by measuring fluorescence; format: functional, cell-based; settings: dose 10-30 µM, time 11.0 hrs
PC-12 [12] = experiment: Antiinflammatory activity in rotenone induced cytotoxicity in rat PC-12 cells assessed as reduction of ROS production pretreated at 10 to 30 uM for 4 hrs followed by rotenone addition treated for 6 hrs measured after 1 hr of H2-DCFDA addition by measuring fluorescence; format: functional, cell-based; settings: dose 10-30 µM, time 11.0 hrs
PC-12 [13] = experiment: Antiinflammatory activity in 6-OHDA-induced cytotoxicity in rat PC-12 cells assessed as reduction of fluorescence signal pretreated at 10 to 30 uM for 4 hrs followed by 6-OHDA addition treated for 6 hrs measured after 1 hr of H2-DCFDA addition by spectrophotometric analysis; format: functional, cell-based; settings: dose 10-30 µM, time 11.0 hrs
PC-12 [14] = experiment: Antiinflammatory activity in rotenone induced cytotoxicity in rat PC-12 cells assessed as reduction of fluorescence signal pretreated at 10 to 30 uM for 4 hrs followed by rotenone addition treated for 6 hrs measured after 1 hr of H2-DCFDA addition by spectrophotometric analysis; format: functional, cell-based; settings: dose 10-30 µM, time 11.0 hrs
PC-12 [15] = experiment: Neuroprotective activity in rat PC-12 cells assessed as upregulation of HO-1 expression measured at 10 uM after 3 to 6 hrs by immunoblotting analysis; format: functional, cell-based; settings: time 3-6 hrs
PC-12 [16] = experiment: Neuroprotective activity in rat PC-12 cells assessed as upregulation of HO-1 expression measured for 6 hrs by immunoblotting analysis; format: functional, cell-based; settings: dose 1-30 µM
PC-12 [17] = experiment: Neuroprotective activity in rat PC-12 cells assessed as fold increase in upregulation of HO-1 expression measured at 30 uM for 6 hrs by immunoblotting analysis; format: functional
PC-12 [18] = experiment: Cytotoxicity in 6-OHDA induced rat PC-12 cells assessed as cell viability pretreated with ZnPP for 30 mins followed by compound addition at 10 uM for 4 hrs and measured after 24 hrs of […] addition by MTT assay; format: functional, cell-based; settings: time 28.0 hrs
[19] = molecular target: T1, Nuclear factor erythroid 2-related factor 2 (Rattus norvegicus) (UniProt O54968); experiment: Induction of Nrf2 nuclear translocation in rat PC12 cells at 10 uM for 3 hrs by Western blotting analysis; format: cell-based; settings: PC-12, filed as activator
T1 sequence (whole entry): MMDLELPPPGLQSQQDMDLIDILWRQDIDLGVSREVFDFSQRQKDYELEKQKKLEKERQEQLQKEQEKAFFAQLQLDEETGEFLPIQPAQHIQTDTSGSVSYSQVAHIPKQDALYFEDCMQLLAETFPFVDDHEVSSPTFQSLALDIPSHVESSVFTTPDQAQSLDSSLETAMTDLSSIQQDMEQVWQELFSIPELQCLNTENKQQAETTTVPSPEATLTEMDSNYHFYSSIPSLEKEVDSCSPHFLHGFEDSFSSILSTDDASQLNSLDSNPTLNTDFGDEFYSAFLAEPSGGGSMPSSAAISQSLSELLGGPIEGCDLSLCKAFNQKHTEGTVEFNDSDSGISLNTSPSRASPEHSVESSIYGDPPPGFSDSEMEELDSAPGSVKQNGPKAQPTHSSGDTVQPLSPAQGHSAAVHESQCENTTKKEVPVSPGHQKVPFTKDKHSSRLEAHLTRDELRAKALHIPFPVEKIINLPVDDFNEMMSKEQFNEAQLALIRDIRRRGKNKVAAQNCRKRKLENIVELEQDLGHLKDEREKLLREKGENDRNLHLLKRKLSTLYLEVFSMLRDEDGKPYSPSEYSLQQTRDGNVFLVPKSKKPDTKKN

PC-12 [20] = experiment: Upregulation of HO-1 expression in si-RNA mediated Nrf2 knock down rat PC-12 cells measured by immunoblotting analysis; format: functional, cell-based
[21] = molecular target: KEAP1/NRF2 (Rattus norvegicus) (UniProt O54968+P57790); experiment: Inhibition of Nrf2-Keap1 protein-protein interaction in rat PC-12 cells by Western blotting analysis; format: cell-based
[22] = molecular target: T1, Nuclear factor erythroid 2-related factor 2 (Rattus norvegicus); experiment: Induction of Nrf2 nuclear translocation in rat PC12 cells assessed as increase in phosphorylation of ERK1 at 10 uM for 2 to 3 hrs by Western blotting analysis; format: cell-based; settings: PC-12, filed as activator, time 2-3 hrs
[23] = molecular target: T1, Nuclear factor erythroid 2-related factor 2 (Rattus norvegicus); experiment: Induction of Nrf2 nuclear translocation in rat PC12 cells assessed as increase in phosphorylation of ERK2 at 10 uM for 2 to 3 hrs by Western blotting analysis; format: cell-based; settings: PC-12, filed as activator, time 2-3 hrs
[24] = molecular target: T1, Nuclear factor erythroid 2-related factor 2 (Rattus norvegicus); experiment: Induction of Nrf2 nuclear translocation in rat PC12 cells assessed as increase in phosphorylation of JNK at 10 uM for 2 to 3 hrs by Western blotting analysis; format: cell-based; settings: PC-12, filed as activator, time 2-3 hrs
[25] = molecular target: T1, Nuclear factor erythroid 2-related factor 2 (Rattus norvegicus); experiment: Induction of Nrf2 nuclear translocation in rat PC12 cells assessed as increase in phosphorylation of AKT at 10 uM for 2 to 3 hrs by Western blotting analysis; format: cell-based; settings: PC-12, filed as activator, time 2-3 hrs
[26] = molecular target: T1, Nuclear factor erythroid 2-related factor 2 (Rattus norvegicus); experiment: Induction of Nrf2 nuclear translocation in rat PC12 cells assessed as change in phosphorylation of p38 MAPK level at 10 uM for 2 to 3 hrs by Western blotting analysis; format: cell-based; settings: PC-12, time 2-3 hrs
[27] = molecular target: T1, Nuclear factor erythroid 2-related factor 2 (Rattus norvegicus); experiment: Induction of Nrf2 nuclear translocation in rat PC12 cells assessed as increase in phosphorylation of ERK1 pretreated with U0126 for 2 hrs followed by compound addition at 10 uM for 2 to 3 hrs by Western blotting analysis; format: cell-based; settings: PC-12, time 2-3 hrs
[28] = molecular target: T1, Nuclear factor erythroid 2-related factor 2 (Rattus norvegicus); experiment: Induction of Nrf2 nuclear translocation in rat PC12 cells assessed as increase in phosphorylation of ERK2 pretreated with U0126 for 2 hrs followed by compound addition at 10 uM for 2 to 3 hrs by Western blotting analysis; format: cell-based; settings: PC-12, time 2-3 hrs
[29] = molecular target: T1, Nuclear factor erythroid 2-related factor 2 (Rattus norvegicus); experiment: Induction of Nrf2 nuclear translocation in rat PC12 cells assessed as increase in phosphorylation of JNK pretreated with SP600125 for 2 hrs followed by compound addition at 10 uM for 2 to 3 hrs by Western blotting analysis; format: cell-based; settings: PC-12, time 2-3 hrs
[30] = molecular target: T1, Nuclear factor erythroid 2-related factor 2 (Rattus norvegicus); experiment: Induction of Nrf2 nuclear translocation in rat PC12 cells assessed as increase in phosphorylation of Akt pretreated with LY294002 for 2 hrs followed by compound addition at 10 uM for 2 to 3 hrs by Western blotting analysis; format: cell-based; settings: PC-12, time 2-3 hrs
[31] = molecular target: T1, Nuclear factor erythroid 2-related factor 2 (Rattus norvegicus); experiment: Inhibition of Nrf2 nuclear translocation in rat PC12 cells assessed as increase in phosphorylation of p38 MAPK pretreated with SB203580 for 2 hrs followed by compound addition at 10 uM for 2 to 3 hrs by Western blotting analysis; format: cell-based; settings: PC-12, time 2-3 hrs
PC-12 [32] = experiment: Reversal of upregulation of HO-1 in rat PC-12 cells pretreated with U0126 for 2 hrs followed by compound addition at 10 uM for 2 to 3 hrs by Western blotting analysis; format: functional, cell-based; settings: time 2-3 hrs
PC-12 [33] = experiment: Reversal of upregulation of HO-1 in rat PC-12 cells pretreated with SP600125 for 2 hrs followed by compound addition at 10 uM for 2 to 3 hrs by Western blotting analysis; format: functional, cell-based; settings: time 2-3 hrs
PC-12 [34] = experiment: Reversal of upregulation of HO-1 in rat PC-12 cells pretreated with LY294002 for 2 hrs followed by compound addition at 10 uM for 2 to 3 hrs by Western blotting analysis; format: functional, cell-based; settings: time 2-3 hrs

In the case of `CCOc1ccc(-c2coc3cc4c(c(OCC)c3c2=O)C=CC(C)(C)O4)cc1`, the Activity (PC-12 [1]) is reported as “Active”.
For `Cc1cc(C)cc(-c2coc3cc(O)c4c(c3c2=O)OC(C)(C)C(O)C4)c1` (stereo unspecified), the Activity (PC-12 [2]) was “Active”, the Activity (PC-12 [3]) was “Active” and the Activity (PC-12 [4]) was “Dose-Dependent Effect”. For the same molecule, the “inhibition (INH)” value (PC-12 [5]) was 45.4% and the Activity (PC-12 [6]) was 73%.
With `C#CCN[C@@H]1CCc2ccccc21` the Activity (PC-12 [2]) was “Active” and the Activity (PC-12 [7]) was “Active”.
For `COc1ccc(-c2coc3cc(O)c4c(c3c2=O)OC(C)(C)C=C4)cc1`, the Activity (PC-12 [3]) was “Active”, the Activity (PC-12 [1]) was “inactive” and the Activity (PC-12 [4]) was “Dose-Dependent Effect”. It also gave an IC50 (PC-12 [8]) of 3.9 µM, a viability at 30 µM [9] of at most 81.8% and an IC50 [10] of 4.8 µM. The inhibition (Brain) was 28.8%, the Activity (PC-12 [11]) was “Active” and the Activity (PC-12 [12]) was “Active”. For the same molecule, the Activity (PC-12 [13]) was “Active”, the Activity (PC-12 [14]) was “Active” and the Activity (PC-12 [15]) was “Active”. The Activity (PC-12 [16]) was “Dose-Dependent Effect”, the “fold change (FC)” value (PC-12 [17]) was 2 and the Activity (PC-12 [18]) was “Active”. For the same molecule, the Activity [19] was “Active”, the Activity (PC-12 [20]) was “inactive” and the inhibition [21] was “Active”. For the same molecule, the Activity [22] was “Active”, the Activity [23] was “Active” and the Activity [24] was “Active”. The Activity [25] was “Active”, the Activity [26] was “inactive” and the Activity [27] was “inactive”. The Activity [28] was “inactive”, the Activity [29] was “inactive” and the Activity [30] was “inactive”. For the same molecule, the inhibition [31] was “Active”, the Activity (PC-12 [32]) was “Active” and the Activity (PC-12 [33]) was “Active”. For the same molecule, the Activity (PC-12 [34]) was “Active”.
For `CC1(C)Oc2c(c(O)cc3occ(-c4cccc(OC(F)(F)F)c4)c(=O)c23)CC1O` (stereo unspecified), the Activity (PC-12 [2]) was “Active”.
For `CC1(C)Oc2c(c(O)cc3occ(-c4ccc(C(F)(F)F)cc4)c(=O)c23)CC1O` (stereo unspecified), the Activity (PC-12 [2]) was “Active”.

Reference: ChEMBL document CHEMBL5352401, “Novel cudraisoflavone J derivatives as potent neuroprotective agents for the treatment of Parkinson's disease via the activation of Nrf2/HO-1 signaling” (Eur J Med Chem, 2022)
